Laboratory results published in patent publication US20210284691A1, “CBX8 CHROMDOMAIN INHIBITORS AND THE USES THEREOF” (Purdue Research Foundation, priority 2019, published 2021).
Square brackets hold non-standard residues; d marks the D form. Peptide text beside a SMILES is read from it. * marks the point of attachment. X2 = O=C(NCCCCn1cc(CN*)nn1)c1ccc2c(c1)C1(OC2=O)c2ccc(O)cc2Oc2cc(O)ccc21; Isoxazole3carbonyl(5-iPr) = CC(C)c1cc(C(=O)*)no1; Tyr(3-Cl) = N[C@@H](Cc1ccc(O)c(Cl)c1)C(=O)O; Gly(3-thienyl) = N[C@H](C(=O)O)c1ccsc1; Lys(Et2) = CCN(CC)CCCC[C@H](N)C(=O)O

Legend:
CBX2 ChD = target: T1, CBX2 ChD (Homo sapiens, UniProt Q14781); test: Direct fluorescence polarization (FP) binding assay
T1 construct: CBX chromodomain constructs; host or cells: E. coli BL21 CodonPlus RIL
T1 sequence (Q14781 12-70 limits assumed): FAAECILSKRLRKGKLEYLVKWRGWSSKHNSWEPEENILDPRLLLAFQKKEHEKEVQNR
Method: (§1) Bacterial growth was completed at 37° C. in LB media to OD600=2.0, followed by reducing the temperature to 16° C. over 30-60 min and induced with 1 mM IPTG for 16 h. Cells were collected by centrifugation at 6000 rpm for 20 min and resuspended in ChD binding buffer (20 mM Tris, pH 8, 150 mM NaCl, 0.01% Tween-20, 20 mM imidazole) with 1.0 mM PMSF. Bacteria pellets were stored at −80° C. until needed. Pellets were thawed on ice for 10 min in ChD binding buffer, and shaked at 4° C. supplemented with 100 μg/mL lysozyme, 1 mg/mL CHAPS and 1 mM PMSF, for 30 min. Cells were subsequently lysed by sonication (15 W, 30 s on, followed by 30 s off, twice, followed by 20 W for 1 min). The solubilized fraction was collected by centrifugation at 15000 rpm for 40 min at 4° C. Meanwhile, Ni-NTA Agarose resin (QIAGEN, Venlo, Netherlands) was washed with H2O and equilibrated with ChD binding buffer. The soluble fraction was incubated with the prewashed Ni-NTA agarose resin at 4° C. for 2 h. The resin was then washed 3× with ChD purification buffer (20 mM Tris, pH 8, 150 mM NaCl, 0.01% Tween-20, 1 mM PMSF). Proteins were eluted by the addition of 0.5 M imidazole to ChD purification buffer. The elution was diluted with 30% glycerol, flash frozen, and stored at −80° C. until needed. Protein purity was assessed by SDS-PAGE and concentration was determined by the Pierce 660 kit (Thermo Scientific).
Direct fluorescence polarization (FP) binding assay of PSL hits against PcG CBX ChDs. FP assays were conducted as above with slight modifications. Alkyne peptides described above were conjugated with a fluorescein group(5-/6-FAM) through copper catalyzed click reaction as previously described. The FAM-labeled peptide was kept constant at 100 nM. The CBX ChD proteins were titrated by 2-fold series dilutions in the assays. The highest protein concentrations, at which FAM-peptide was completely bound, used for each CBX in the direct binding assays depends on the binding affinity of the peptides. Assays were performed for each peptide in four replicates.

CBX7 ChD = target: T2, CBX7 ChD (Homo sapiens, UniProt O95931); test: as above
T2 construct: CBX chromodomain constructs; host or cells: E. coli BL21 CodonPlus RIL
T2 sequence (O95931 11-69 limits assumed): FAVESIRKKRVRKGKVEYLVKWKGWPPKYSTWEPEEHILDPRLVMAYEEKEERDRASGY
Method: as §1, with “CBX chromodomain constructs (addgene plasmid #25158 (CBX2), #25237 (CBX4), #25296 (CBX6), #25241 (CBX7) and #62514 (CBX8, provided by Cheryl Arrowsmith), Kaustov et al.) were transformed into chemically competent BL21 CodonPlus RIL E. coli cells (Stratagene, La Jolla, Calif.) as N-terminal His6-tagged proteins. Bacterial” for “Bacterial”, “The soluble fraction was incubated with the prewashed Ni-NTA agarose resin at 4° C. for 2 h. The resin was then washed 3× with ChD purification buffer (20 mM Tris, pH 8, 150 mM NaCl, 0.01% Tween-20, 1 mM PMSF). Proteins were eluted by the addition of 0.5 M imidazole to ChD purification buffer. The elution was diluted with 30% glycerol, flash frozen, and stored at −80° C. until needed.” left out
Direct fluorescence polarization (FP) binding assay of PSL hits against PcG CBX ChDs. […]

CC[C@H](C)[C@H](NC(=O)[C@@H](NC(=O)[C@H](Cc1ccc(O)c(Cl)c1)NC(=O)c1cc(C(C)C)on1)c1ccsc1)C(=O)N[C@@H](CCCCN(CC)CC)C(=O)N[C@@H](CO)C(=O)NCc1cn(CCCCNC(=O)c2ccc3c(c2)C2(OC3=O)c3ccc(O)cc3Oc3cc(O)ccc32)nn1 [SW2_104A-FL] ({Isoxazole3carbonyl(5-iPr)}-[Tyr(3-Cl)][Gly(3-thienyl)]I[Lys(Et2)]S-X2)
Kd (CBX2 ChD): 51 ± 36 nM | Kd (CBX7 ChD): 840 ± 380 nM
